Results reported in patent US20250270617A1, “Compound - diagnostic marker for kidney cancer, method for detecting enzymatic activity, method for diagnosis of kidney cancer, kit comprising the compound, uses of the compound and method for the treatment of kidney cancer” (URTESTE S.A., priority 2022, published 2025).
Where “and” joins values, the source holds several entries; their conditions need not be identical. Identical values can stand only once. Numbered stars: 1 amine (or outer) side, 2 acyl side, 3 side chain; on linkers, the order of the positions; unused ones are H or OH. Square brackets hold non-standard residues; d marks the D form. Ends that are not written are not given here. Benzoyl(5-NH,2-NO2) = O=C(c1cc(N[*:1])ccc1[N+](=O)[O-])[*:2]; 2Abz = Nc1ccccc1C(=O)O

Legend:
Assay type in all cases: biochemical, human
[1] = test system: proteolytic enzymes specific/characteristic of kidney cancer in urine; assay: Absorbance measurement of substrate hydrolysis in individual urine samples (kidney cancer and healthy subjects)
[2] = test system: proteolytic enzymes in urine; assay: Dependence of substrate hydrolysis on reaction pH; conditions: FIG. 4
Experimental: Furthermore, measurements concerning the dependence of the proteolytic activity of the representative compound according to the invention on the reaction pH were performed.

[3] = test system: proteolytic enzymes specific/characteristic of kidney cancer in urine; assay: Absorbance measurement of substrate hydrolysis in individual urine samples (kidney cancer and healthy subjects); conditions: for Results of absorbance analysis (rate of hydrolysis of the substrate): 405 nm, 37° C., 60 minutes, pH 8.0, triplicate
Experimental: (§1) The activity of the novel compounds according to the invention was studied in a group of 20 subjects diagnosed with kidney cancer using the representative compound according to the invention. […] The remaining compounds according to the invention are characterized by the analogous mechanism of action. For this purpose, the representative compound according to the invention, ABZ^1-Leu^2-Pro^3-Gly^4-Thr^5-ANB^6—NH2, was dissolved in dimethyl sulfoxide (at a concentration of 0.5 mg/mL) and then 50 μL of the solution was mixed with 120 μL of a buffer (200 mM Tris-HCl, pH 8.0) and 80 μL of urine from a subject suffering from kidney cancer. The measurement was performed on a 96-well plate designed for measuring absorbance and each sample was analysed in triplicate at the temperature of 37° C. The duration of the measurement was 60 minutes. During the measurement, the wavelength characteristic for the chromophore (ANB-NH2) being released was monitored at the wavelength 405 nm (range 380-430 nm).
The observed magnitude of increase in absorbance in time is different for each of the examined samples.
Such a result may be due to the difference in the activity as well as the amount of enzymes responsible for the enzymatic cleavage (proteolysis). […] The result indicates the absence of proteolytic enzymes specific/characteristic of kidney cancer.

[4] = test system: proteolytic enzymes in urine from a person diagnosed with kidney cancer; assay: RP HPLC analysis of substrate cleavage in urine from a person with kidney cancer; conditions: randomly selected urine from a person diagnosed with kidney cancer; FIG. 1
[5] = test system: proteolytic enzymes in urine from patients with different cancers; assay: Selectivity of substrate cleavage in urine samples by cancer type; conditions: testicular, prostate, pancreatic, biliary duct, lung, ovary, rectum cancer; mixture of 20 samples each; FIG. 3
Text: Arabic numerals indicate the numbers of given cancer types. The samples tested for each type of cancer were derived from 20 different patients for each of the tested cancers. The results are mean values for given cancer types.
as §1
Furthermore, the dependence of the cleavage selectivity of the substrate, i.e. the compound according to the invention, on the cancer type being examined, was studied. […]

- Results of absorbance analysis (rate of hydrolysis of the substrate) ([1]; urine sample 35, healthy subject, 405 nm, 37° C., 60 minutes, pH 8.0, triplicate): 0.000000
- Dependence of the hydrolysis level of the substrate on pH [2]: maximum activity at alkaline pH
- Cleavage of the substrate in urine samples from persons suffering from kidney cancer ([3]; all samples N1-N20): underwent cleavage
- Efficiency of substrate cleavage in samples N3 and N6 ([3]; compared with samples N5 or N20, FIG. 2, Table 1): less efficiently
- Results of absorbance analysis (rate of hydrolysis of the substrate) ([3]; urine sample 21, healthy subject): 0.000000
- Results of absorbance analysis (rate of hydrolysis of the substrate) ([3]; urine sample 22, healthy subject): 0.000000
- Results of absorbance analysis (rate of hydrolysis of the substrate) ([3]; urine sample 23, healthy subject): 0.000000
- Results of absorbance analysis (rate of hydrolysis of the substrate) ([3]; urine sample 24, healthy subject): 0.000000
- Results of absorbance analysis (rate of hydrolysis of the substrate) ([3]; urine sample 25, healthy subject): 0.000000
- Results of absorbance analysis (rate of hydrolysis of the substrate) ([3]; urine sample 26, healthy subject): 0.000000
- Results of absorbance analysis (rate of hydrolysis of the substrate) ([3]; urine sample 27, healthy subject): 0.000000
- Results of absorbance analysis (rate of hydrolysis of the substrate) ([3]; urine sample 28, healthy subject): 0.000000
- Results of absorbance analysis (rate of hydrolysis of the substrate) ([3]; urine sample 29, healthy subject): 0.000000
- Results of absorbance analysis (rate of hydrolysis of the substrate) ([3]; urine sample 30, healthy subject): 0.000000
- Results of absorbance analysis (rate of hydrolysis of the substrate) ([3]; urine sample 31, healthy subject): 0.000000
- Results of absorbance analysis (rate of hydrolysis of the substrate) ([3]; urine sample 32, healthy subject): 0.000000
- Results of absorbance analysis (rate of hydrolysis of the substrate) ([3]; urine sample 33, healthy subject): 0.000000
- Results of absorbance analysis (rate of hydrolysis of the substrate) ([3]; urine sample 34, healthy subject): 0.000000
- Results of absorbance analysis (rate of hydrolysis of the substrate) ([3]; urine sample 36, healthy subject): 0.000000
- Results of absorbance analysis (rate of hydrolysis of the substrate) ([3]; urine sample 37, healthy subject): 0.000000
- Results of absorbance analysis (rate of hydrolysis of the substrate) ([3]; urine sample 38, healthy subject): 0.000000
- Results of absorbance analysis (rate of hydrolysis of the substrate) ([3]; urine sample 39, healthy subject): 0.000000
- Results of absorbance analysis (rate of hydrolysis of the substrate) ([3]; urine sample 40, healthy subject): 0.000000
- Results of absorbance analysis (rate of hydrolysis of the substrate) ([3]; urine sample N1, subject with kidney cancer): 0.027 and 0.019 and 0.023
- Results of absorbance analysis (rate of hydrolysis of the substrate) ([3]; urine sample N2, subject with kidney cancer): 0.021 and 0.014 and 0.019
- Results of absorbance analysis (rate of hydrolysis of the substrate) ([3]; urine sample N4, subject with kidney cancer): 0.032 and 0.029 and 0.03
- Results of absorbance analysis (rate of hydrolysis of the substrate) ([3]; urine sample N5, subject with kidney cancer): 0.034 and 0.032 and 0.029
- Results of absorbance analysis (rate of hydrolysis of the substrate) ([3]; urine sample N6, subject with kidney cancer): 0.0033 and 0.0027 and 0.003
- Results of absorbance analysis (rate of hydrolysis of the substrate) ([3]; urine sample N7, subject with kidney cancer): 0.02 and 0.021 and 0.018
- Results of absorbance analysis (rate of hydrolysis of the substrate) ([3]; urine sample N9, subject with kidney cancer): 0.031 and 0.03 and 0.035
- Results of absorbance analysis (rate of hydrolysis of the substrate) ([3]; urine sample N10, subject with kidney cancer): 0.0026 and 0.0037 and 0.0031
- Results of absorbance analysis (rate of hydrolysis of the substrate) ([3]; urine sample N11, subject with kidney cancer): 0.012 and 0.01 and 0.015
- Results of absorbance analysis (rate of hydrolysis of the substrate) ([3]; urine sample N12, subject with kidney cancer): 0.0098 and 0.0111 and 0.012
- Results of absorbance analysis (rate of hydrolysis of the substrate) ([3]; urine sample N13, subject with kidney cancer): 0.004 and 0.0051 and 0.0045
- Results of absorbance analysis (rate of hydrolysis of the substrate) ([3]; urine sample N14, subject with kidney cancer): 0.0036 and 0.0033 and 0.0032
- Results of absorbance analysis (rate of hydrolysis of the substrate) ([3]; urine sample N15, subject with kidney cancer): 0.0043 and 0.0037 and 0.004
- Results of absorbance analysis (rate of hydrolysis of the substrate) ([3]; urine sample N16, subject with kidney cancer): 0.0039 and 0.0037 and 0.0035
- Results of absorbance analysis (rate of hydrolysis of the substrate) ([3]; urine sample N17, subject with kidney cancer): 0.013 and 0.0135 and 0.0136
- Results of absorbance analysis (rate of hydrolysis of the substrate) ([3]; urine sample N18, subject with kidney cancer): 0.004 and 0.0032 and 0.0038
- Results of absorbance analysis (rate of hydrolysis of the substrate) ([3]; urine sample N19, subject with kidney cancer): 0.0038 and 0.004 and 0.0037
- Results of absorbance analysis (rate of hydrolysis of the substrate) ([3]; urine sample N20, subject with kidney cancer): 0.031 and 0.026
- Cleavage of the substrate in samples from patients with other cancers [5]: is not subject to cleavage
Substance: ABZ-Leu-Pro-Gly-Thr-ANB-NH2 ([2Abz]LPGT-{Benzoyl(5-NH,2-NO2)-NH2}) [chromogenic/fluorogenic peptide; ABZ is 2-aminobenzoic acid, ANB-NH2 is amide of 5-amino-2-nitrobenzoic acid]
- Increase in absorbance / hydrolysis in urine samples from healthy persons ([1]; samples 21 to 40, without a cancer diagnosis): does not lead to an increase in absorbance
- Cleavage products by RP HPLC analysis [4]: cleaves into the peptide fragment ABZ-Leu-Pro-Gly-Thr-OH and the chromophore group of the compound (ANB-NH2)
